Experimental data taken from ChEMBL document CHEMBL1201862, “PubChem BioAssay data set” (2004).
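All cell lines were grown in 96-well plates and treated with compound for 48 hours. GI50 marks 50% less growth.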 The source made the active and inactive calls. No stated cut-off is given here; in the data, active = GI50 up to about 1.1 µM and inactive = higher.

Assays:
Test in all cases: DTP human tumour cell line panel, 48 h
[1] = tested on: DMS-114
[2] = tested on: HCT-15
[3] = tested on: IGROV-1
[4] = tested on: DLD-1
[5] = tested on: OVCAR-4
[6] = tested on: HOP-18
[7] = tested on: OVCAR-5
[8] = tested on: CAKI-1
[9] = tested on: NCI-H460
[10] = tested on: OVCAR-3
[11] = tested on: SK-MEL-28
[12] = tested on: CCRF-CEM
[13] = tested on: HOP-92
[14] = tested on: MCF7
[15] = tested on: U-251
[16] = tested on: A498
[17] = tested on: NCI-H23
[18] = tested on: XF498
[19] = tested on: Malme-3M
[20] = tested on: NCI-H522
[21] = tested on: DMS-273
[22] = tested on: UACC-62
[23] = tested on: SF-539
[24] = tested on: UO-31
[25] = tested on: SK-MEL-2
[26] = tested on: SN12C
[27] = tested on: SK-MEL-5
[28] = tested on: SNB-75
[29] = tested on: NCI/ADR-RES
[30] = tested on: LOX IMVI
[31] = tested on: NCI-H226
[32] = tested on: UACC-257
[33] = tested on: K562
[34] = tested on: SNB-19
[35] = tested on: HCC 2998
[36] = tested on: HCT-116
[37] = tested on: RPMI-8226
[38] = tested on: EKVX
[39] = tested on: COLO 205
[40] = tested on: KM12
[41] = tested on: SF-295
[42] = tested on: SF-268
[43] = tested on: SW-620
[44] = tested on: SNB-78
[45] = tested on: HT-29
[46] = tested on: KM-20L2
[47] = tested on: M19-MEL
[48] = tested on: MOLT-4
[49] = tested on: A549
[50] = tested on: HOP-62
[51] = tested on: OVCAR-8
[52] = tested on: SK-OV-3
[53] = tested on: HL-60
[54] = tested on: RXF 393
[55] = tested on: 786-0
[56] = tested on: TK-10
[57] = tested on: SR
[58] = tested on: M14
[59] = tested on: ACHN
[60] = tested on: LXFL 529

For `O=C(NN1C(=O)CS(=O)(=O)C1c1ccc(Cl)c(Cl)c1)c1ccncc1` (configuration not stated), the GI50 [1] was 61.2 µM (inactive), the GI50 [2] was over 100 µM and the GI50 [3] was > 100 µM (inactive). The GI50 [4] was > 100 µM (inactive), the GI50 [5] was > 100 µM (inactive) and the GI50 [6] was > 100 µM (inactive). The GI50 [7] was > 62.2 µM (inactive), the GI50 [8] was > 100 µM (inactive) and the GI50 [9] was > 100 µM (inactive). For the same compound, the GI50 [10] was > 90.8 µM (inactive), the GI50 [11] was > 100 µM (inactive) and the GI50 [12] was 42.1 µM (inactive). The GI50 [13] was > 100 µM (inactive), the GI50 [14] was 98.2 µM (inactive) and the GI50 [15] was > 100 µM (inactive). For the same compound, the GI50 [16] was > 90.4 µM (inactive), the GI50 [17] was > 100 µM (inactive) and the GI50 [18] was > 100 µM (inactive). The GI50 [19] was > 100 µM (inactive), the GI50 [20] was 66.1 µM (inactive) and the GI50 [21] was > 31.6 µM (inactive). The GI50 [22] was > 100 µM (inactive), the GI50 [23] was > 100 µM (inactive) and the GI50 [24] was > 100 µM (inactive). The GI50 [25] was > 100 µM (inactive), the GI50 [26] was > 100 µM (inactive) and the GI50 [27] was > 94.2 µM (inactive). The GI50 [28] was 54.2 µM (inactive), the GI50 [29] was > 92.7 µM (inactive) and the GI50 [30] was > 95.9 µM (inactive). The GI50 [31] was > 100 µM (inactive), the GI50 [32] was > 100 µM (inactive) and the GI50 [33] was > 54.2 µM (inactive). For the same compound, the GI50 [34] was > 92.3 µM (inactive), the GI50 [35] was > 100 µM (inactive) and the GI50 [36] was > 87.7 µM (inactive). For the same compound, the GI50 [37] was > 41.7 µM (inactive), the GI50 [38] was > 74 µM (inactive) and the GI50 [39] was > 100 µM (inactive). The GI50 [40] was > 100 µM (inactive), the GI50 [41] was > 87.5 µM (inactive) and the GI50 [42] was > 81.5 µM (inactive). For the same compound, the GI50 [43] was > 100 µM (inactive), the GI50 [44] was > 93.1 µM (inactive) and the GI50 [45] was > 71.3 µM (inactive). The GI50 [46] was > 91.4 µM (inactive), the GI50 [47] was > 100 µM (inactive) and the GI50 [48] was > 40.3 µM (inactive). For the same compound, the GI50 [49] was > 92.3 µM (inactive), the GI50 [50] was > 100 µM (inactive) and the GI50 [51] was > 100 µM (inactive). The GI50 [52] was 57.5 µM (inactive), the GI50 [53] was > 43 µM (inactive) and the GI50 [54] was > 69 µM (inactive).
For `C=C[C@@H](C)[C@]1(C(=O)OC)CCCC12OCCO2`, the GI50 [1] was > 100 µM (inactive), the GI50 [2] was 94.2 µM and the GI50 [3] was > 100 µM (inactive). The GI50 [4] was > 100 µM (inactive), the GI50 [5] was > 100 µM (inactive) and the GI50 [6] was > 100 µM (inactive). The GI50 [7] was > 100 µM (inactive), the GI50 [8] was > 100 µM (inactive) and the GI50 [9] was > 100 µM (inactive). The GI50 [10] was > 100 µM (inactive), the GI50 [11] was > 100 µM (inactive) and the GI50 [12] was > 100 µM (inactive). For the same compound, the GI50 [13] was > 100 µM (inactive), the GI50 [15] was > 100 µM (inactive) and the GI50 [55] was 63.8 µM (inactive). The GI50 [16] was > 100 µM (inactive), the GI50 [18] was > 100 µM (inactive) and the GI50 [56] was > 100 µM (inactive). For the same compound, the GI50 [57] was 68.5 µM (inactive), the GI50 [19] was > 100 µM (inactive) and the GI50 [58] was > 100 µM (inactive). For the same compound, the GI50 [20] was 82.2 µM (inactive), the GI50 [21] was 39.3 µM (inactive) and the GI50 [22] was > 100 µM (inactive). For the same compound, the GI50 [23] was > 100 µM (inactive), the GI50 [24] was > 100 µM (inactive) and the GI50 [25] was > 100 µM (inactive). The GI50 [26] was > 100 µM (inactive), the GI50 [27] was > 100 µM (inactive) and the GI50 [28] was > 100 µM (inactive). The GI50 [30] was > 100 µM (inactive), the GI50 [31] was > 100 µM (inactive) and the GI50 [59] was > 100 µM (inactive). The GI50 [32] was > 100 µM (inactive), the GI50 [33] was > 100 µM (inactive) and the GI50 [34] was > 100 µM (inactive). The GI50 [35] was > 100 µM (inactive), the GI50 [36] was > 100 µM (inactive) and the GI50 [37] was 72.9 µM (inactive). The GI50 [38] was > 100 µM (inactive), the GI50 [39] was > 100 µM (inactive) and the GI50 [40] was > 100 µM (inactive). The GI50 [41] was > 100 µM (inactive), the GI50 [42] was > 100 µM (inactive) and the GI50 [45] was > 100 µM (inactive). The GI50 [46] was > 100 µM (inactive), the GI50 [47] was > 100 µM (inactive) and the GI50 [48] was > 100 µM (inactive). For the same compound, the GI50 [49] was > 100 µM (inactive), the GI50 [50] was > 100 µM (inactive) and the GI50 [51] was > 100 µM (inactive). For the same compound, the GI50 [52] was > 100 µM (inactive), the GI50 [53] was > 100 µM (inactive) and the GI50 [60] was > 100 µM (inactive). The GI50 [54] was > 100 µM (inactive).
For `Cc1[nH]c2c(C)cccc2c1C1Cc2ccccc2N1` (configuration not stated), the GI50 [1] was 18.2 µM (inactive), the GI50 [2] was 21.3 µM and the GI50 [3] was 17.3 µM (inactive). The GI50 [4] was 28.8 µM (inactive), the GI50 [6] was 17.8 µM (inactive) and the GI50 [7] was 21.2 µM (inactive). The GI50 [9] was 25.1 µM (inactive), the GI50 [10] was 16.7 µM (inactive) and the GI50 [11] was 18.8 µM (inactive). The GI50 [12] was 25.5 µM (inactive), the GI50 [13] was 0.0214 µM (active) and the GI50 [15] was 20 µM (inactive). The GI50 [55] was 22.3 µM (inactive), the GI50 [16] was 28.6 µM (inactive) and the GI50 [17] was 20.3 µM (inactive). The GI50 [18] was 21.1 µM (inactive), the GI50 [56] was 23 µM (inactive) and the GI50 [57] was 20.7 µM (inactive). For the same compound, the GI50 [19] was 19.1 µM (inactive), the GI50 [58] was 15.5 µM (inactive) and the GI50 [20] was 19.5 µM (inactive). The GI50 [22] was 18.6 µM (inactive), the GI50 [23] was 17.8 µM (inactive) and the GI50 [24] was 22.1 µM (inactive). The GI50 [25] was 28.8 µM (inactive), the GI50 [26] was 21.2 µM (inactive) and the GI50 [27] was 18.5 µM (inactive). For the same compound, the GI50 [28] was > 100 µM (inactive), the GI50 [30] was 17.1 µM (inactive) and the GI50 [31] was 23.8 µM (inactive). For the same compound, the GI50 [59] was 27.4 µM (inactive), the GI50 [32] was 22.3 µM (inactive) and the GI50 [33] was 29.2 µM (inactive). The GI50 [34] was 29.1 µM (inactive), the GI50 [36] was 17 µM (inactive) and the GI50 [37] was 22.9 µM (inactive). The GI50 [38] was 15.5 µM (inactive), the GI50 [39] was 18.2 µM (inactive) and the GI50 [40] was 17.5 µM (inactive). The GI50 [41] was 19.8 µM (inactive), the GI50 [42] was 20.5 µM (inactive) and the GI50 [43] was 26.4 µM (inactive). The GI50 [45] was 19.5 µM (inactive), the GI50 [46] was 17.1 µM (inactive) and the GI50 [47] was 21.7 µM (inactive). For the same compound, the GI50 [48] was 20.5 µM (inactive), the GI50 [49] was 21.7 µM (inactive) and the GI50 [50] was 16.4 µM (inactive). For the same compound, the GI50 [51] was 19.5 µM (inactive), the GI50 [52] was 36.5 µM (inactive) and the GI50 [53] was 19.8 µM (inactive). For the same compound, the GI50 [60] was 17.6 µM (inactive) and the GI50 [54] was 10.7 µM (inactive).
